Results reported in ChEMBL document CHEMBL5712093, “The histone methyltransferase SMYD2 is a novel therapeutic target for the induction of apoptosis in ovarian clear cell carcinoma cells” (Oncol Lett, 2020).
pIC50: −log10 of the molar value.

Key:
Type in all cases: functional, cell-based
[1] = Anti-proliferative activity against human OVMANA cells assessed as cell viability incubated for 24 hrs by CCK-8 assay
[2] = Anti-proliferative activity against human OVTOKO cells assessed as cell viability incubated for 24 hrs by CCK-8 assay
TOV21G = test: Anti-proliferative activity against human TOV-21G cells assessed as cell viability incubated for 24 hrs by CCK-8 assay

Cc1cn(CCN2CCN(c3ccccc3-c3cc(C#N)cc(C(=O)NCCCN4CCCC4)c3)CC2)c2ccccc12
pIC50 [1]: 5.93
pIC50 [2]: 6.02
pIC50 (TOV21G): 5.92
